From patent US20060084688A1, “Aromatic sulfone hydroxamic acid metalloprotease inhibitor” (priority 1997, published 2006)

Legend:
[1] = rat, in vivo, 20 mg/kg; for BA / Blood Level @ 6 hr: po
recombinant human MMP-13 = recombinant human MMP-13 (Homo sapiens, UniProt P45452); experiment: biochemical; conditions: Inhibition Table B
recombinant human MMP-1 = biological target: T1, recombinant human MMP-1 (Homo sapiens, UniProt P03956); experiment: biochemical; conditions: Inhibition Table B
T1 construct: made in house; host or cells: transfected HT-1080 cells
T1 sequence (P03956 100-469): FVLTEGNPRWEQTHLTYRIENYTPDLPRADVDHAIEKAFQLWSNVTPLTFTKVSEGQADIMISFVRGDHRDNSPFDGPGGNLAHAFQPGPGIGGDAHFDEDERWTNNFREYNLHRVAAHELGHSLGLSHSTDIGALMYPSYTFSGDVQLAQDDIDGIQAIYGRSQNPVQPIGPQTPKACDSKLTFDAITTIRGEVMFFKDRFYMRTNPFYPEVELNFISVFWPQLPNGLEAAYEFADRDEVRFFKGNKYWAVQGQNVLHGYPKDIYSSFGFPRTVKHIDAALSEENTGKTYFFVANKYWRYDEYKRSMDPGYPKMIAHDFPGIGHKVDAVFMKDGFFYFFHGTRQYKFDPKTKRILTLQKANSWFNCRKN

recombinant human MMP-2 = biological target: T2, recombinant human MMP-2 (Homo sapiens, UniProt P08253); experiment: biochemical; conditions: Inhibition Table B
T2 sequence (P08253 110-660): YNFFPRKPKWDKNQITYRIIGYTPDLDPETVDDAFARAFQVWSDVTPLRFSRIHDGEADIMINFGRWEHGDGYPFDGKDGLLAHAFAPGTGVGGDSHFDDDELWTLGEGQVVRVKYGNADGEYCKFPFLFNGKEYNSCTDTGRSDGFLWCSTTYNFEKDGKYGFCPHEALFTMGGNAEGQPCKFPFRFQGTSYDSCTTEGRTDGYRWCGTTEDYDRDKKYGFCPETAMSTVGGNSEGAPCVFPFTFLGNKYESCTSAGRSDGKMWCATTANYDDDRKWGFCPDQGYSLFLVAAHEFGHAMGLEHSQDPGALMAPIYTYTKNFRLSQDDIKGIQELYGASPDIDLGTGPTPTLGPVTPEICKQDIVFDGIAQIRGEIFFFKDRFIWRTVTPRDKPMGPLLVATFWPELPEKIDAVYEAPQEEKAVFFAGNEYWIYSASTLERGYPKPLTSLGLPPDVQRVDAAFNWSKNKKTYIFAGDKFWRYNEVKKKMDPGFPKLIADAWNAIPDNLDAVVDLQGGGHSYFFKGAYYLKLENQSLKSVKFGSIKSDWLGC

SMILES	Blood Level @ 3 min [1] [ng/mL]	BA [1] [%]	Blood Level @ 6 hr [1] [ng/mL]	IC50 (recombinant human MMP-13) [nM]	IC50 (recombinant human MMP-1) [nM]	IC50 (recombinant human MMP-2) [nM]
CC(=O)N1CCC(C(=O)NO)(S(=O)(=O)c2ccc(Oc3ccccc3)cc2)CC1 [Example 12, 1-acetyl-N-hydroxy-4-[(4-phenoxyphenyl)sulfonyl]-4-piperidinecarboxamide]	73540	11.1	121			
Cl.O=C(NO)C1(S(=O)(=O)c2ccc(Oc3ccccc3)cc2)CCN(C2CC2)CC1 [Example 17, 1-cyclopropyl-N-hydroxy-4-[(4-phenoxyphenyl)sulfonyl]-4-piperidinecarboxamide]	63440	35.9	135			
CC1(C)C[C@@H]2C[C@@](C)(CN2C(=O)C2CCN(c3ccc(S(=O)(=O)C4(C(=O)NO)CCOCC4)cc3)CC2)C1 [Example 164]				20	> 10000	1750
O=C(C1CCN(c2ccc(S(=O)(=O)C3(C(=O)NO)CCOCC3)cc2)CC1)N1CCCCCC1 [Example 165]				13.6	> 10000	330
O=C(C1CCCN(c2ccc(S(=O)(=O)C3(C(=O)NO)CCOCC3)cc2)C1)N1CCC(O)C1 (stereo not drawn) [Example 166]				> 100	> 10000	> 1000
CN(C)[C@H]1CCN(C(=O)C2CCCN(c3ccc(S(=O)(=O)C4(C(=O)NO)CCOCC4)cc3)C2)C1 (stereo partly drawn) [Example 167]				> 100	> 10000	> 1000
N[C@H]1CCN(C(=O)C2CCCN(c3ccc(S(=O)(=O)C4(C(=O)NO)CCOCC4)cc3)C2)C1 (stereo partly drawn) [Example 168]				> 100	> 10000	> 1000
O=C(C1CCCN(c2ccc(S(=O)(=O)C3(C(=O)NO)CCOCC3)cc2)C1)N1CCC(N2CCCC2)CC1 (stereo not drawn) [Example 171]				> 100	> 10000	> 1000
O=C(C1CCCN(c2ccc(S(=O)(=O)C3(C(=O)NO)CCOCC3)cc2)C1)N1CCCC1 (stereo not drawn) [Example 172]				> 100	> 10000	> 1000
O=C(C1CCN(c2ccc(S(=O)(=O)C3(C(=O)NO)CCOCC3)cc2)CC1)N1CCC(O)C1 (stereo not drawn) [Example 173]				> 100	> 10000	> 1000
CN(C)[C@H]1CCN(C(=O)C2CCN(c3ccc(S(=O)(=O)C4(C(=O)NO)CCOCC4)cc3)CC2)C1 [Example 174]				> 100	8000	900
O=C(C1CCN(c2ccc(S(=O)(=O)C3(C(=O)NO)CCOCC3)cc2)CC1)N1CCCC2CCCCC21 (stereo not drawn) [Example 177]				21	> 10000	400
O=C(C1CCN(c2ccc(S(=O)(=O)C3(C(=O)NO)CCOCC3)cc2)CC1)N1CCC(N2CCCC2)CC1 [Example 178]				> 100	> 10000	540
C=CCN(CC=C)C(=O)C1CCN(c2ccc(S(=O)(=O)C3(C(=O)NO)CCOCC3)cc2)CC1 [Example 182]				4	> 10000	240
CN(C)CCCN(CCCN(C)C)C(=O)C1CCN(c2ccc(S(=O)(=O)C3(C(=O)NO)CCOCC3)cc2)CC1 [Example 183]				40	> 10000	288
CC(C)NC(=O)C1CCN(c2ccc(S(=O)(=O)C3(C(=O)NO)CCOCC3)cc2)CC1 [Example 184]				7	> 10000	94
O=C(NN1CCOCC1)C1CCN(c2ccc(S(=O)(=O)C3(C(=O)NO)CCOCC3)cc2)CC1 [Example 185]				17.5	> 10000	210
O=C(NCc1cccnc1)C1CCN(c2ccc(S(=O)(=O)C3(C(=O)NO)CCOCC3)cc2)CC1 [Example 186]				10	> 10000	120
O=C(NC1CCCCC1)C1CCN(c2ccc(S(=O)(=O)C3(C(=O)NO)CCOCC3)cc2)CC1 [Example 187]				12.1	> 10000	290
O=C(NC1CCc2ccccc21)C1CCN(c2ccc(S(=O)(=O)C3(C(=O)NO)CCOCC3)cc2)CC1 (stereo not drawn) [Example 188]				9.4	> 10000	350
O=C(NCc1cccs1)C1CCN(c2ccc(S(=O)(=O)C3(C(=O)NO)CCOCC3)cc2)CC1 [Example 189]				8	3700	94
CC1CCN(C(=O)C2CCN(c3ccc(S(=O)(=O)C4(C(=O)NO)CCOCC4)cc3)CC2)CC1 [Example 190]				10.6	> 10000	220

SMILES	Blood Level @ 3 min [1] [ng/mL]	BA [1] [%]	Blood Level @ 6 hr [1] [ng/mL]	IC50 (recombinant human MMP-13) [nM]	IC50 (recombinant human MMP-1) [nM]	IC50 (recombinant human MMP-2) [nM]
O=C(C1CCN(c2ccc(S(=O)(=O)C3(C(=O)NO)CCOCC3)cc2)CC1)N1CCC(Cc2ccccc2)CC1 [Example 191]				4	> 10000	350
O=C(C1CCN(c2ccc(S(=O)(=O)C3(C(=O)NO)CCOCC3)cc2)CC1)N1CCC(c2ccccc2)CC1 [Example 192]				10	> 10000	330
O=C(C1CCN(c2ccc(S(=O)(=O)C3(C(=O)NO)CCOCC3)cc2)CC1)N1CCC(O)(Cc2ccccc2)CC1 [Example 193]				6	> 10000	390
O=C(NCc1ccccn1)C1CCN(c2ccc(S(=O)(=O)C3(C(=O)NO)CCOCC3)cc2)CC1 [Example 196]				25	> 10000	240
O=C(C1CCN(c2ccc(S(=O)(=O)C3(C(=O)NO)CCOCC3)cc2)CC1)N(Cc1ccccc1)Cc1ccccc1 [Example 198]				14.5	> 10000	270
O=C(C1CCN(c2ccc(S(=O)(=O)C3(C(=O)NO)CCOCC3)cc2)CC1)N1CCc2ccccc2C1 [Example 199]				1.4	> 10000	155
O=C(C1CCCCCC1)N1CCN(c2ccc(S(=O)(=O)C3(C(=O)NO)CCOCC3)cc2)CC1 [Example 202]				9.15	> 10000	54
O=C([C@@H]1CCCN1)N1CCN(c2ccc(S(=O)(=O)C3(C(=O)NO)CCOCC3)cc2)CC1 [Example 203]				30	8500	31
CC(C)[C@H](N)C(=O)N1CCN(c2ccc(S(=O)(=O)C3(C(=O)NO)CCOCC3)cc2)CC1 [Example 204]				27.1	> 10000	25
O=C(Oc1ccc([N+](=O)[O-])cc1)N1CCN(c2ccc(S(=O)(=O)C3(C(=O)NO)CCOCC3)cc2)CC1 [Example 205]				2	7300	12.7
CN(C)C(=O)N1CCN(c2ccc(S(=O)(=O)C3(C(=O)NO)CCOCC3)cc2)CC1 [Example 208]				27	> 10000	27
O=C(N1CCNCC1)N1CCN(c2ccc(S(=O)(=O)C3(C(=O)NO)CCOCC3)cc2)CC1 [Example 209]				20	> 10000	19
CN1CCN(C(=O)N2CCN(c3ccc(S(=O)(=O)C4(C(=O)NO)CCOCC4)cc3)CC2)CC1 [Example 210]				20	> 10000	27
CCOC(=O)C1CCN(C(=O)N2CCN(c3ccc(S(=O)(=O)C4(C(=O)NO)CCOCC4)cc3)CC2)CC1 [Example 211]				24	> 10000	33
CCOC(=O)C1CCCN(C(=O)N2CCN(c3ccc(S(=O)(=O)C4(C(=O)NO)CCOCC4)cc3)CC2)C1 (stereo not drawn) [Example 212]				20	> 10000	33
O=C(NO)C1(S(=O)(=O)c2ccc(-c3cccc([N+](=O)[O-])c3)cc2)CCOCC1 [Example 214]				< 1	1100	< 1
O=C(NO)C1(S(=O)(=O)c2ccc(-c3ccc(Cl)cc3)cc2)CCOCC1 [Example 216]				< 1	1000	< 1
O=C(NO)C1(S(=O)(=O)c2ccc(-c3ccc(C(F)(F)F)cc3)cc2)CCOCC1 [Example 221]				< 1	1600	< 1
Cc1cc(-c2ccc(S(=O)(=O)C3(C(=O)NO)CCOCC3)cc2)ccc1F [Example 222]				< 1	100	< 1
Cc1ccc(-c2ccc(S(=O)(=O)C3(C(=O)NO)CCOCC3)cc2)cc1C [Example 223]				< 1	1100	< 1
O=C(NO)C1(S(=O)(=O)c2ccc(-c3cc4ccccc4o3)cc2)CCOCC1 [Example 229]				< 1	> 10000	< 1
